Our source for the IC50 and CI values is ChEMBL document CHEMBL4334526, “Synthesis of Peptoid-Based Class I-Selective Histone Deacetylase Inhibitors with Chemosensitizing Properties” (J Med Chem, 2019).

SMILES strings stand for the structures. pIC50: −log10 of the molar value.

The target in experiment [1] is Histone deacetylase. The experiment in a line: Inhibition of HDAC in human CAL27 cells using Boc-Lys(epsilon-Ac)-AMC as substrate preincubated for 18 hrs followed by substrate addition and measured after 3 hrs by fluorescence assay. The class given is cell-based.
For experiment [2], the target named is T1, Class 1 histone deacetylase (Homo sapiens, UniProt Q13547+O15379+Q92769+Q9BY41).
Description: Inhibition of class 1 HDAC in human Cal27CisR cells assessed as potentiation of cisplatin-induced cytotoxicity by measuring combination index at 0.5 uM in presence of 1 uM cisplatin by MTT assay based Chou-Talalay analysis
The target in a further experiment is Histone deacetylase 1 (Homo sapiens, UniProt Q13547). The experiment in a line: Inhibition of recombinant human full length C-terminal His/FLAG-tagged HDAC1 expressed in baculovirus infected Sf9 insect cells using ZMAL as substrate incubated for 90 mins by fluorescence assay.
Experiment [3] has as its target T1, Class 1 histone deacetylase. Description: Inhibition of class 1 HDAC in human Cal27CisR cells assessed as potentiation of cisplatin-induced cytotoxicity by measuring combination index at 1 uM in presence of 10 uM cisplatin by MTT assay based Chou-Talalay analysis. Type of experiment: cell-based.
In another experiment the test system is CAL-27. Description: Cytotoxicity against human CAL27 cells assessed as reduction in cell survival measured after 72 hrs by MTT assay. The class given is functional, cell-based. The conditions noted are these: CAL-27, 72 h.
Experiment [4] addresses T1, Class 1 histone deacetylase. Description: Inhibition of class 1 HDAC in human Cal27CisR cells assessed as potentiation of cisplatin-induced cytotoxicity by measuring combination index at 1 uM in presence of 32 uM cisplatin by MTT assay based Chou-Talalay analysis. Type of experiment: cell-based.
The target of experiment [5] is T2, Protein deacetylase HDAC6 (Homo sapiens, UniProt Q9UBN7).
T2 sequence (Q9UBN7 whole entry): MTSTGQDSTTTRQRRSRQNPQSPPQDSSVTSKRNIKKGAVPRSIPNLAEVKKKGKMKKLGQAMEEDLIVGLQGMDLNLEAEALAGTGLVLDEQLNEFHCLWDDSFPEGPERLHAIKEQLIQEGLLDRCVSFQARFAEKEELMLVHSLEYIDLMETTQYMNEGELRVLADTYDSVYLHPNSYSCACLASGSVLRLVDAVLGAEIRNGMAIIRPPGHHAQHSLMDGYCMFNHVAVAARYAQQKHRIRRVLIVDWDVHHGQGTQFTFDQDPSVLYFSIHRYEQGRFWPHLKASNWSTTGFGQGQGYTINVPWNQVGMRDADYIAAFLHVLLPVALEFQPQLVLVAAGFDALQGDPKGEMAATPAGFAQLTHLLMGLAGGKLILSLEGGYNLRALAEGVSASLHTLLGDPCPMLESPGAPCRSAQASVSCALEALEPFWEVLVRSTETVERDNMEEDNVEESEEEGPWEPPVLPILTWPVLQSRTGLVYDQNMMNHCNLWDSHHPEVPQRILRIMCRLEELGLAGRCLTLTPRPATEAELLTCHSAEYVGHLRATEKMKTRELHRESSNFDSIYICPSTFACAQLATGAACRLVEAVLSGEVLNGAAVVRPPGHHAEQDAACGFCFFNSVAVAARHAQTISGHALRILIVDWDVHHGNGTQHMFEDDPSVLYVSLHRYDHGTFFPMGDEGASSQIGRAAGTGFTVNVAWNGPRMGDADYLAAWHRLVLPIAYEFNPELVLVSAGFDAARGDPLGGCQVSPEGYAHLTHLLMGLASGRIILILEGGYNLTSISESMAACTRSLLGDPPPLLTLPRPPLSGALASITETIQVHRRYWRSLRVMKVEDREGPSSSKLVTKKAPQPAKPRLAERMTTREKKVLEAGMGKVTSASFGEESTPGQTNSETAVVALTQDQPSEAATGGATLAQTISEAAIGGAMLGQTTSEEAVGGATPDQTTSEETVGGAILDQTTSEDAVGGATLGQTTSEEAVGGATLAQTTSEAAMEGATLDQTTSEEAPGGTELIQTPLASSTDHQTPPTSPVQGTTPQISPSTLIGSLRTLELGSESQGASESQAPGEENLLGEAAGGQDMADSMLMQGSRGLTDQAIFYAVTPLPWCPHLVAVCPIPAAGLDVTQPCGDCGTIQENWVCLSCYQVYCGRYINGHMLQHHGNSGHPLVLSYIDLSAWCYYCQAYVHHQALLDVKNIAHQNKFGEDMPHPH
Description: Inhibition of human full length N-terminal GST-tagged HDAC6 expressed in baculovirus infected Sf9 insect cells ZMAL as substrate incubated for 90 mins by fluorescence assay. The class given is cell-based.

The target of experiment [6] is T1, Class 1 histone deacetylase. The source holds these as a separate data set.
Description: Inhibition of class 1 HDAC in human Cal27CisR cells assessed as potentiation of cisplatin-induced cytotoxicity by measuring combination index at 0.5 uM in presence of 100 uM cisplatin by MTT assay based Chou-Talalay analysis
Experiment [7] has the same target. The experiment in a line: Inhibition of class 1 HDAC in human CAL27 cells assessed as potentiation of cisplatin-induced cytotoxicity by measuring combination index at […] in presence of […] cisplatin by MTT assay based Chou-Talalay analysis. Type of experiment: cell-based. The note with it: CAL-27.
The target in a further experiment is Histone deacetylase 4 (Homo sapiens, UniProt P56524). The experiment in a line: Inhibition of recombinant human N-terminal GST-fused and C-terminal His-tagged HDAC4 (627 to 1084 residues) expressed in baculovirus infected insect cells using Boc-Lys(TFa)-AMC as substrate preincubated for 5 mins followed by substrate addition and measured after 90 mins by fluorescence assay.

The target in experiment [8] is Histone deacetylase. The experiment in a line: Inhibition of HDAC in human A2780 cells using Boc-Lys(epsilon-Ac)-AMC as substrate preincubated for 18 hrs followed by substrate addition and measured after 3 hrs by fluorescence assay. Type of experiment: cell-based.
The target in experiment [9] is T1, Class 1 histone deacetylase. Description: Inhibition of class 1 HDAC in human CAL27 cells assessed as potentiation of cisplatin-induced cytotoxicity by measuring combination index at 1 uM in presence of 0.10 uM cisplatin by MTT assay based Chou-Talalay analysis. The class given is cell-based. The note with it: CAL-27.
Experiment [10] shares this target. Description: Inhibition of class 1 HDAC in human Cal27CisR cells assessed as potentiation of cisplatin-induced cytotoxicity by measuring combination index at […] in presence of 10 uM cisplatin by MTT assay based Chou-Talalay analysis. Type of experiment: cell-based.
The target is the same in experiment [11]. Description: Inhibition of class 1 HDAC in human CAL27 cells assessed as potentiation of cisplatin-induced cytotoxicity by measuring combination index at […] in presence of 0.1 uM cisplatin by MTT assay based Chou-Talalay analysis. The note with it: CAL-27. Type of experiment: cell-based.
A further experiment addresses T3, Histone deacetylase 8 (Homo sapiens, UniProt Q9BY41).
T3 sequence (Q9BY41 whole entry): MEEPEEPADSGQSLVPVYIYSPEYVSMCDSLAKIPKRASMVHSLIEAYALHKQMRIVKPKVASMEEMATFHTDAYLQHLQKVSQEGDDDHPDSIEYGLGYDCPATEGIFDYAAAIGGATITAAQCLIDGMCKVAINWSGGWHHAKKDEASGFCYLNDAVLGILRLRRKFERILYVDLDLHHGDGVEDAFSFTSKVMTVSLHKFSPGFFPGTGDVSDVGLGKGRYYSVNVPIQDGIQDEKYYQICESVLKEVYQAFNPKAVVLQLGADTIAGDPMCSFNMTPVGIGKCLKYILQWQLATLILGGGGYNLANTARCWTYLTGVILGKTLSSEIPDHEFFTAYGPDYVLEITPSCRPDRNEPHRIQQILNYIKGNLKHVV
Description: Inhibition of recombinant human C-terminal His-fusion tagged/N-terminal Strep-2 tagged HDAC8 (1 to 377 residues) expressed in insect cells using Boc-Lys(TFa)-AMC as substrate preincubated for 5 mins followed by substrate addition measured after 90 mins by fluorescence assay.

Sequence of Histone deacetylase 4 (P56524 whole entry, the tested form may be a part): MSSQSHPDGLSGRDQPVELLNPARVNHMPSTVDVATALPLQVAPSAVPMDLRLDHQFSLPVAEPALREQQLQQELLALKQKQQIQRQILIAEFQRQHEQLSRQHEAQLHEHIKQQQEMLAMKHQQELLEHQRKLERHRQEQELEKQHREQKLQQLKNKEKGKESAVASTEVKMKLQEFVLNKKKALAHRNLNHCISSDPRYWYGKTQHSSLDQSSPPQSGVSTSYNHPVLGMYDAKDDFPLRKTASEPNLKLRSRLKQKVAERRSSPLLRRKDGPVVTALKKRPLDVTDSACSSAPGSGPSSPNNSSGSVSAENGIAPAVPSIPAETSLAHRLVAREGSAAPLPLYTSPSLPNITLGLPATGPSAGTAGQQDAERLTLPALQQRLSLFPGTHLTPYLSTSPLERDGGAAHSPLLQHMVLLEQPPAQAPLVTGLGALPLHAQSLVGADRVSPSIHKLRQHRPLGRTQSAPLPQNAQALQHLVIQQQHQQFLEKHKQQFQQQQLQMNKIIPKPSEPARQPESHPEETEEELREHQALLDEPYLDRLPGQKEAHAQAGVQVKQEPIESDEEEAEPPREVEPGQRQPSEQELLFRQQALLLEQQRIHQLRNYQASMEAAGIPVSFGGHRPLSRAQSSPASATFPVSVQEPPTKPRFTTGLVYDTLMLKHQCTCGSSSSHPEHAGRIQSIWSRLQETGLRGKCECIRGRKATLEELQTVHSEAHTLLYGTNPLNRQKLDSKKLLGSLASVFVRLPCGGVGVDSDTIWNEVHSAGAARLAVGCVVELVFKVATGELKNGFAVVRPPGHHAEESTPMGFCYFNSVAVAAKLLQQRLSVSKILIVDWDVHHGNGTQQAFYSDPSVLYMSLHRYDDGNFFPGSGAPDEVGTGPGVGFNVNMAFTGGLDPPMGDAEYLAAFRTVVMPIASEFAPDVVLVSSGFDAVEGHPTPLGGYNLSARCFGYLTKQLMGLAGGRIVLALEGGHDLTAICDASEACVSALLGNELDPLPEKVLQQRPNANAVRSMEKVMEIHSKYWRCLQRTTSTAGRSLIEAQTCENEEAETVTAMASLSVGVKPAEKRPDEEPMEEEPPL
T1 sequence (O15379 whole entry, looked up, one chain of several): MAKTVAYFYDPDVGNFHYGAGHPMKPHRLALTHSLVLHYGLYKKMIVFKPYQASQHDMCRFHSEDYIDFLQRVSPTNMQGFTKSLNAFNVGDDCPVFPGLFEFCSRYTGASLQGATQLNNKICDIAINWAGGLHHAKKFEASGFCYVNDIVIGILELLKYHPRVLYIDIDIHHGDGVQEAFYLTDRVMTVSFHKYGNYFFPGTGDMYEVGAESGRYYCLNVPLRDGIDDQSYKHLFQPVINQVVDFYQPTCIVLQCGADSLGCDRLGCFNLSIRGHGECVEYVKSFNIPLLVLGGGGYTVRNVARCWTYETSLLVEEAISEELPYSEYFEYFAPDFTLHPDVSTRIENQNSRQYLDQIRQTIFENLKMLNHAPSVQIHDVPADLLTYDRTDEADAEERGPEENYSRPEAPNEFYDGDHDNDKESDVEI
T1 sequence (Q13547 whole entry, looked up, one chain of several): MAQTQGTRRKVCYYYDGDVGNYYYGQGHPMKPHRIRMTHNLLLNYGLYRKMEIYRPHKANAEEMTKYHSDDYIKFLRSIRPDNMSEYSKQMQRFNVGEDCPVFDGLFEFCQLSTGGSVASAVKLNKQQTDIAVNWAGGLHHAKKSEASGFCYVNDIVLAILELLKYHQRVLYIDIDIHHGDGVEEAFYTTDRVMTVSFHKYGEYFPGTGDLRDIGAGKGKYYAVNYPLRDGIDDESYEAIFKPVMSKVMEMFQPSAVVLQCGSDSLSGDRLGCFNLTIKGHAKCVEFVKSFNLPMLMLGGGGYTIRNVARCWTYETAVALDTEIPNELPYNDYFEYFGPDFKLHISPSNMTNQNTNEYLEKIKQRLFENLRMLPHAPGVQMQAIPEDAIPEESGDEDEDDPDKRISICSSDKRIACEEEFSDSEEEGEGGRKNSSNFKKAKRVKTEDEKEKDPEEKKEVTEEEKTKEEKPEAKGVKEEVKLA
T1 sequence (Q92769 whole entry, looked up, one chain of several): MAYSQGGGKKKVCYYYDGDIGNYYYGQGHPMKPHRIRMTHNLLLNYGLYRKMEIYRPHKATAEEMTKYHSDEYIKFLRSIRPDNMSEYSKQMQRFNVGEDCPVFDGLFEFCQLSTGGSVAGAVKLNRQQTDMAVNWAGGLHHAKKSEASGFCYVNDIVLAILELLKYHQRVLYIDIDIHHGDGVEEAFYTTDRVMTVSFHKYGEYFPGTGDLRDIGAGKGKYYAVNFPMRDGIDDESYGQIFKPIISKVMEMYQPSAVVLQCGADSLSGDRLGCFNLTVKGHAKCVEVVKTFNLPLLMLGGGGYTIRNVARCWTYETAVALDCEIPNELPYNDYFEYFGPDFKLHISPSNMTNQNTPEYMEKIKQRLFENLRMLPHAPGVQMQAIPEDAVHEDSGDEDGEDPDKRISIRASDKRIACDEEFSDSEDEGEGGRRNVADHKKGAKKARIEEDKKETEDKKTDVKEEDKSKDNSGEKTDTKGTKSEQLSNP
Sequence of Histone deacetylase 1 (Q13547 whole entry): as the sequence (Q13547 whole entry, looked up, one chain of several) above

`Cc1cc(C)cc(C(=O)N(CC(=O)NCc2ccccc2)Cc2ccc(C(=O)Nc3cc(-c4ccccc4)ccc3N)cc2)c1`: the concentration for half-maximal inhibition (IC50) on Histone deacetylase [1] came out at 0.63 µM; against Histone deacetylase [8], 1.72 µM. The CI turned out to be 0.77 in experiment [2]; 0.5 in experiment [3]; 0.27 in [4]; 0.1 in experiment [6]; 0.14 in experiment [7]; 0.42 in experiment [9]. For the same molecule, the CI is 0.31 in experiment [10] and 0.39 in [11]. Also, the pIC50 is 7.29 at Histone deacetylase 1; 5.05 with CAL-27; less than 5.00 in experiment [5]; less than 5.00 on Histone deacetylase 4; 5.50 on Histone deacetylase 8.
As to `Cc1cc(C)cc(C(=O)N(CCCCCC(=O)Nc2cc(-c3ccccc3)ccc2N)CC(=O)NCc2ccccc2)c1`, the figures for the half-inhibitory concentration (IC50) against Histone deacetylase [1] and at Histone deacetylase [8] were 0.47 µM and 1.43 µM, respectively. The pIC50 was 7.24 at Histone deacetylase 1; 4.72 in the experiment with CAL-27; less than 5.00 in [5]; less than 5.00 on Histone deacetylase 4; less than 5.00 on Histone deacetylase 8. In addition, the CI in [3] is less than 0.2; in experiment [4], less than 0.2; in [7], 0.25; in experiment [9], less than 0.2; in [10], less than 0.2; in experiment [11] it was less than 0.2.
As to `CN(C)c1ccc(C(=O)N(CC(=O)NCc2ccccc2)Cc2ccc(C(=O)Nc3ccccc3N)cc2)cc1`, the values for the 50% inhibitory concentration (IC50) against Histone deacetylase [1] and against Histone deacetylase [8] were 0.11 µM and 0.48 µM, respectively. The CI was 0.33 in [2] and 0.07 in experiment [6]. Besides, the negative logarithm of the IC50 (pIC50) was 7.42 on Histone deacetylase 1; 5.80 in the experiment on CAL-27; less than 5.00 in [5]; less than 5.00 at Histone deacetylase 4; 5.04 on Histone deacetylase 8.
